Measured values from ChEMBL document CHEMBL1201862, “PubChem BioAssay data set” (2004).
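In this assay, cells in 96-well plates receive the compound at five concentrations for 48 hours. Endpoints are linearly interpolated between the surrounding concentrations. GI50 is the concentration that inhibits growth by half.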 Calls of active or inactive are those of the source. Cut-off read from the data, not from the text of the source: active = GI50 up to about 1.1 µM and inactive = higher.

Columns and labels:
Test in all cases: NCI-60 cell line screen, 48 h
786-0 = test system: 786-0
A498 = test system: A498
A549 = test system: A549
ACHN = test system: ACHN
BT-549 = test system: BT-549
CAKI-1 = test system: CAKI-1
CCRF-CEM = test system: CCRF-CEM
COLO 205 = test system: COLO 205
DU-145 = test system: DU-145
EKVX = test system: EKVX
HCC 2998 = test system: HCC 2998
HCT-116 = test system: HCT-116
HCT-15 = test system: HCT-15
HL-60 = test system: HL-60
HOP-92 = test system: HOP-92
HT-29 = test system: HT-29
Hs-578T = test system: Hs-578T
IGROV-1 = test system: IGROV-1
K562 = test system: K562
KM12 = test system: KM12
LOX IMVI = test system: LOX IMVI
M14 = test system: M14
MCF7 = test system: MCF7
MDA-MB-231 = test system: MDA-MB-231
MDA-MB-435 = test system: MDA-MB-435
MDA-N = test system: MDA-N
MOLT-4 = test system: MOLT-4
Malme-3M = test system: Malme-3M
NCI-H226 = test system: NCI-H226
NCI-H23 = test system: NCI-H23
NCI-H460 = test system: NCI-H460
NCI-H522 = test system: NCI-H522
NCI/ADR-RES = test system: NCI/ADR-RES
OVCAR-3 = test system: OVCAR-3
OVCAR-4 = test system: OVCAR-4
OVCAR-5 = test system: OVCAR-5
OVCAR-8 = test system: OVCAR-8
PC-3 = test system: PC-3
RPMI-8226 = test system: RPMI-8226
RXF 393 = test system: RXF 393
SF-295 = test system: SF-295
SK-MEL-28 = test system: SK-MEL-28
SK-MEL-2 = test system: SK-MEL-2
SK-MEL-5 = test system: SK-MEL-5
SK-OV-3 = test system: SK-OV-3
SN12C = test system: SN12C
SNB-19 = test system: SNB-19
SR = test system: SR
SW-620 = test system: SW-620
TK-10 = test system: TK-10
U-251 = test system: U-251
UACC-257 = test system: UACC-257
UACC-62 = test system: UACC-62
UO-31 = test system: UO-31
HOP-62 = test system: HOP-62
SF-268 = test system: SF-268
SF-539 = test system: SF-539
SNB-75 = test system: SNB-75
T47D = test system: T47D

Measured: GI50

COc1c(O)cc2c3c(ccnc13)NC=C2
inactive: 786-0 41.9 µM | A498 > 100 µM | A549 > 100 µM | ACHN 55.7 µM | BT-549 > 100 µM | CAKI-1 > 100 µM | CCRF-CEM 4.78 µM | COLO 205 > 100 µM | DU-145 > 100 µM | EKVX > 100 µM | HCC 2998 > 100 µM | HCT-116 76.9 µM | HL-60 11.4 µM | HOP-92 > 100 µM | HT-29 16.9 µM | Hs-578T > 100 µM | IGROV-1 > 100 µM | K562 96.6 µM | KM12 > 100 µM | LOX IMVI 61.1 µM | M14 > 100 µM | MCF7 26.7 µM | MDA-MB-231 35.6 µM | MDA-MB-435 > 100 µM | MDA-N > 100 µM | MOLT-4 3.25 µM | Malme-3M 85.7 µM | NCI-H226 > 100 µM | NCI-H23 > 100 µM | NCI-H460 > 100 µM | NCI-H522 1.63 µM | NCI/ADR-RES > 100 µM | OVCAR-3 12.4 µM | OVCAR-4 > 100 µM | OVCAR-5 > 100 µM | OVCAR-8 > 100 µM | PC-3 24.3 µM | RPMI-8226 > 100 µM | RXF 393 18.1 µM | SF-295 > 100 µM | SK-MEL-28 > 100 µM | SK-MEL-2 57.9 µM | SK-MEL-5 > 100 µM | SK-OV-3 83.2 µM | SN12C > 100 µM | SNB-19 > 100 µM | SR 17.3 µM | SW-620 68.2 µM | TK-10 > 100 µM | U-251 80.2 µM | UACC-257 > 100 µM | UACC-62 > 100 µM | UO-31 36.8 µM
> 100 µM: HCT-15

NC1CC(=O)c2c1sc(Cl)c2Cl (stereo not given)
inactive: 786-0 > 100 µM | A498 > 100 µM | A549 > 100 µM | ACHN > 100 µM | BT-549 > 100 µM | CAKI-1 > 100 µM | CCRF-CEM > 100 µM | COLO 205 > 100 µM | DU-145 > 100 µM | EKVX > 100 µM | HCC 2998 > 100 µM | HCT-116 > 100 µM | HL-60 > 100 µM | HOP-62 > 100 µM | HT-29 > 100 µM | IGROV-1 > 100 µM | K562 > 100 µM | KM12 > 100 µM | M14 > 100 µM | MCF7 > 100 µM | MDA-MB-231 > 100 µM | MDA-MB-435 > 100 µM | MDA-N > 100 µM | MOLT-4 > 100 µM | Malme-3M > 100 µM | NCI-H460 > 100 µM | NCI/ADR-RES > 100 µM | OVCAR-3 > 100 µM | OVCAR-5 > 100 µM | OVCAR-8 > 100 µM | PC-3 > 100 µM | RPMI-8226 > 100 µM | RXF 393 > 100 µM | SF-268 > 100 µM | SF-539 > 100 µM | SK-MEL-28 > 100 µM | SK-MEL-2 > 100 µM | SK-MEL-5 > 100 µM | SK-OV-3 > 100 µM | SN12C > 100 µM | SNB-19 > 100 µM | SNB-75 > 100 µM | SR > 100 µM | SW-620 > 100 µM | T47D > 100 µM | TK-10 > 100 µM | U-251 > 100 µM | UACC-257 > 100 µM | UACC-62 > 100 µM | UO-31 > 100 µM
> 100 µM: HCT-15

COC(=O)[C@@](C)(COC(=O)C(C)(C)C)NC(=O)OC(C)(C)C
inactive: 786-0 > 100 µM | A498 > 100 µM | A549 > 100 µM | ACHN > 100 µM | BT-549 > 100 µM | CAKI-1 > 100 µM | CCRF-CEM > 100 µM | COLO 205 > 100 µM | DU-145 > 100 µM | EKVX > 100 µM | HCC 2998 > 100 µM | HCT-116 > 100 µM | HOP-62 > 100 µM | HT-29 > 100 µM | IGROV-1 > 100 µM | K562 > 100 µM | KM12 > 100 µM | LOX IMVI > 100 µM | M14 > 100 µM | MCF7 > 100 µM | MDA-MB-231 > 100 µM | MDA-MB-435 > 100 µM | MDA-N > 100 µM | MOLT-4 > 100 µM | Malme-3M > 100 µM | NCI-H226 > 100 µM | NCI-H23 > 100 µM | NCI-H460 > 100 µM | NCI-H522 > 100 µM | NCI/ADR-RES > 100 µM | OVCAR-4 > 100 µM | OVCAR-5 > 100 µM | OVCAR-8 > 100 µM | PC-3 > 100 µM | RPMI-8226 > 100 µM | RXF 393 > 100 µM | SF-268 > 100 µM | SF-295 > 100 µM | SF-539 > 100 µM | SK-MEL-28 > 100 µM | SK-MEL-2 > 100 µM | SK-MEL-5 > 100 µM | SK-OV-3 > 100 µM | SN12C > 100 µM | SNB-19 > 100 µM | SNB-75 > 100 µM | SR > 100 µM | SW-620 > 100 µM | T47D > 100 µM | TK-10 > 100 µM | U-251 > 100 µM | UACC-257 > 100 µM | UACC-62 > 100 µM | UO-31 > 100 µM
> 100 µM: HCT-15
